Measurements published in ChEMBL document CHEMBL5465560, “Selectivity Literature for EUbOPEN Chemogenomic Library” (2024).

How the values were obtained:
[1] = molecular target: T1, Dual specificity tyrosine-phosphorylation-regulated kinase 2 (Homo sapiens) (UniProt Q92630); experiment: Selectivity interaction (KinomeScan (DiscoverX)) EUB0000607a DYRK2; conditions: at 10 µM
T1 sequence (whole entry): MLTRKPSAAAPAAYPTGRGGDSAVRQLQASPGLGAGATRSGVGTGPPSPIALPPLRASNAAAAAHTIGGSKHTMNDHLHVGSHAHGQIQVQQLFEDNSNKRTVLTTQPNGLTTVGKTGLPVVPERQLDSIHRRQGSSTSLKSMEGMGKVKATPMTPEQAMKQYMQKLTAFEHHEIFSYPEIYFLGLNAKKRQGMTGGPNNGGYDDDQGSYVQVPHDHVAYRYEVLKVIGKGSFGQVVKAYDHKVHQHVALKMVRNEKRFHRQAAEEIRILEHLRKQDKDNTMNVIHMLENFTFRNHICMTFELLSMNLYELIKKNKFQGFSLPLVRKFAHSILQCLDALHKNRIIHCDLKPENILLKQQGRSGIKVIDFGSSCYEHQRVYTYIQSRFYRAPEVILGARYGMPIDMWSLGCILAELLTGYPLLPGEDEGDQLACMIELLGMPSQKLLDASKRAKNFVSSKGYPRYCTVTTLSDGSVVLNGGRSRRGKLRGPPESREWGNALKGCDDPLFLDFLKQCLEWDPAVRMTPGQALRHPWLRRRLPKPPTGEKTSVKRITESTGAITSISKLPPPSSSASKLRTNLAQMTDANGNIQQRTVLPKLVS

[2] = molecular target: Histamine H1 receptor (Homo sapiens, UniProt P35367); experiment: Selectivity interaction (Panel of kinases, GPCRs, ion channels and transporters (enzymatic assay)) EUB0000266bCl HRH1
Sequence of Histamine H1 receptor (P35367 whole entry): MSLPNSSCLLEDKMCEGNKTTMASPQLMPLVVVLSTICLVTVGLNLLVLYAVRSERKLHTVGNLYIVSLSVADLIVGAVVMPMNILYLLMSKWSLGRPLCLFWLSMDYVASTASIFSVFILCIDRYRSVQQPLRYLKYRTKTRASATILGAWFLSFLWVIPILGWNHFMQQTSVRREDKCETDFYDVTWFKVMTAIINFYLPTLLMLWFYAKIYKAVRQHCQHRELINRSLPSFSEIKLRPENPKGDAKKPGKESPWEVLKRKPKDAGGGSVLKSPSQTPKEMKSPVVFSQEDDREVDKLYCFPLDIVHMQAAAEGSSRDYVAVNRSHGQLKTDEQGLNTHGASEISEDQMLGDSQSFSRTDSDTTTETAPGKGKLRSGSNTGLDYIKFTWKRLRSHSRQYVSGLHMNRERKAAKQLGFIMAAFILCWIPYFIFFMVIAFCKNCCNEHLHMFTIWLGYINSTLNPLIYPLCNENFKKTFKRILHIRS

[3] = molecular target: Ribosomal protein S6 kinase alpha-2 (Homo sapiens) (UniProt Q15349); experiment: Selectivity interaction (ActivX KiNativ screen (kinase selectivity in THP-1 cell lysates)) EUB0000639a RPS6KA2; assay type: subcellular; conditions: lysate, at 1 µM
Sequence of Ribosomal protein S6 kinase alpha-2 (Homo sapiens) (Q15349 whole entry): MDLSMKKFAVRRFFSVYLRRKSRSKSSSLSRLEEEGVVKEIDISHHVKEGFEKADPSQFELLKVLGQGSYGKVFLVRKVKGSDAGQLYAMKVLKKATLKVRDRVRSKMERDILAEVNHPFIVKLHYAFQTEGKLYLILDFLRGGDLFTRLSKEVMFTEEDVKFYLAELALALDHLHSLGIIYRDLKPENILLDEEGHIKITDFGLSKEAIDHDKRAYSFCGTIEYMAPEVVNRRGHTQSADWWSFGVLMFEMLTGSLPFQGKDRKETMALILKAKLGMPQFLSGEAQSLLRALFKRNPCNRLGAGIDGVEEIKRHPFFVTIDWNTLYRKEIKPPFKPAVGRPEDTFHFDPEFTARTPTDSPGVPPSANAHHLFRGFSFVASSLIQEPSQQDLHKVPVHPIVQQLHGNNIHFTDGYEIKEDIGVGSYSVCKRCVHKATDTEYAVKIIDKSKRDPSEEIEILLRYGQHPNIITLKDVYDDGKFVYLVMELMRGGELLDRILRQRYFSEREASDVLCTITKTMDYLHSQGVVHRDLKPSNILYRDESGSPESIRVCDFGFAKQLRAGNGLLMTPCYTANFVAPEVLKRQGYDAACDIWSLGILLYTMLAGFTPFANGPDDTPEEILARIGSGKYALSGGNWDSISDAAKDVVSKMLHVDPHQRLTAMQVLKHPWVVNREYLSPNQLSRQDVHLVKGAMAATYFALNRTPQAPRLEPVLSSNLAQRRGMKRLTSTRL

[4] = molecular target: T2, Tyrosine-protein kinase ITK/TSK (Homo sapiens) (UniProt Q08881); experiment: Selectivity interaction (ProQinase) EUB0000171b ITK
T2 sequence (whole entry): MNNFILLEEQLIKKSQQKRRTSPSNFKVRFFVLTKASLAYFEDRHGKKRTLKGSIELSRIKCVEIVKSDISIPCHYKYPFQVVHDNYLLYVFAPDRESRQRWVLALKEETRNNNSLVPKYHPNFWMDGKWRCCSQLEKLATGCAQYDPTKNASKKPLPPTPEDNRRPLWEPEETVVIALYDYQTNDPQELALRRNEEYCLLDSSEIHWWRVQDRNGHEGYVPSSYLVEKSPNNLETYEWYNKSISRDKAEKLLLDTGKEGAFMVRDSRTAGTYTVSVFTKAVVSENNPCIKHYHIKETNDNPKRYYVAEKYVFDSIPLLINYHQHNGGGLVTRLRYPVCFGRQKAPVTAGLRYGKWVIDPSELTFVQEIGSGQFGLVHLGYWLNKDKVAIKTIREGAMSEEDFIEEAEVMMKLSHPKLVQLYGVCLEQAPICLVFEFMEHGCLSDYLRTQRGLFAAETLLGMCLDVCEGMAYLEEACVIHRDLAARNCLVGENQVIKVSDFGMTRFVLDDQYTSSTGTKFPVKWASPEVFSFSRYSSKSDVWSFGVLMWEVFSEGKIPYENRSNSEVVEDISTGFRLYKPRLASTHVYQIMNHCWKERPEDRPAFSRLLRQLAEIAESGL

[5] = molecular target: T3, Non-receptor tyrosine-protein kinase TNK1 (Homo sapiens) (UniProt Q13470); experiment: Selectivity interaction (ProQinase) EUB0000171b TNK1
T3 sequence (whole entry): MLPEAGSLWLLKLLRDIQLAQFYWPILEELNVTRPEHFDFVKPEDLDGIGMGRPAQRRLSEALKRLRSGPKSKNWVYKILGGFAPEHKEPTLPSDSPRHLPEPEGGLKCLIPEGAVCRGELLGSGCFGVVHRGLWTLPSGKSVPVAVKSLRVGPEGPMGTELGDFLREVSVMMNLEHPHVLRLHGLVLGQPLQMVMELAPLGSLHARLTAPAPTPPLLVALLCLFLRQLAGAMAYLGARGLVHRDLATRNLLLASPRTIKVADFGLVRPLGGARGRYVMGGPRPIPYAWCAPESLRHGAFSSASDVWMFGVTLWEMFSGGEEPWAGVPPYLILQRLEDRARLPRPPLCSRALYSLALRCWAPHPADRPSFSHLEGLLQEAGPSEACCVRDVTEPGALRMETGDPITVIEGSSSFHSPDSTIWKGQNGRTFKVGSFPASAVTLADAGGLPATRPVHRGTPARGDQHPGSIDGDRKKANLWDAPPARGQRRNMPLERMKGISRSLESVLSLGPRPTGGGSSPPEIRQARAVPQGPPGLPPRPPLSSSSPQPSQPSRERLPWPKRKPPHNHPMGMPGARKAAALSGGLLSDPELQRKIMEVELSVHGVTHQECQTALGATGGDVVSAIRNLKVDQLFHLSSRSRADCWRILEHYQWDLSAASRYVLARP

[6] = molecular target: Mitogen-activated protein kinase 11 (Homo sapiens) (UniProt Q15759); experiment: Selectivity interaction (Kinase screening (Upstate/Millipore)) EUB0000604a MAPK11
Sequence of Mitogen-activated protein kinase 11 (Homo sapiens) (Q15759 whole entry): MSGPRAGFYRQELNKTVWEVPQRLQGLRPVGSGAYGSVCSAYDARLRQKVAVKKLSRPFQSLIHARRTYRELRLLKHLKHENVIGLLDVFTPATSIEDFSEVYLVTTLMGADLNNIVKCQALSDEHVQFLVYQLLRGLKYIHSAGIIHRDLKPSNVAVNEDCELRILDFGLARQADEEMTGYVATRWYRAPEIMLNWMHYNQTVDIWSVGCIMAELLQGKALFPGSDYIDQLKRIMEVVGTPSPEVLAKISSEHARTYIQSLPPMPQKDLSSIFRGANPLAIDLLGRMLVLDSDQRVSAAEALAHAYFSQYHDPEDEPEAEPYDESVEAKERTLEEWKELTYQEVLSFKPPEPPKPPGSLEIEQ

[7] = molecular target: Mitogen-activated protein kinase kinase kinase 11 (Homo sapiens) (UniProt Q16584); experiment: Selectivity interaction (KinomeScan (DiscoverX)) EUB0000655a MAP3K11; conditions: at 10 µM
Sequence of Mitogen-activated protein kinase kinase kinase 11 (Homo sapiens) (Q16584 whole entry, looked up, canonical isoform): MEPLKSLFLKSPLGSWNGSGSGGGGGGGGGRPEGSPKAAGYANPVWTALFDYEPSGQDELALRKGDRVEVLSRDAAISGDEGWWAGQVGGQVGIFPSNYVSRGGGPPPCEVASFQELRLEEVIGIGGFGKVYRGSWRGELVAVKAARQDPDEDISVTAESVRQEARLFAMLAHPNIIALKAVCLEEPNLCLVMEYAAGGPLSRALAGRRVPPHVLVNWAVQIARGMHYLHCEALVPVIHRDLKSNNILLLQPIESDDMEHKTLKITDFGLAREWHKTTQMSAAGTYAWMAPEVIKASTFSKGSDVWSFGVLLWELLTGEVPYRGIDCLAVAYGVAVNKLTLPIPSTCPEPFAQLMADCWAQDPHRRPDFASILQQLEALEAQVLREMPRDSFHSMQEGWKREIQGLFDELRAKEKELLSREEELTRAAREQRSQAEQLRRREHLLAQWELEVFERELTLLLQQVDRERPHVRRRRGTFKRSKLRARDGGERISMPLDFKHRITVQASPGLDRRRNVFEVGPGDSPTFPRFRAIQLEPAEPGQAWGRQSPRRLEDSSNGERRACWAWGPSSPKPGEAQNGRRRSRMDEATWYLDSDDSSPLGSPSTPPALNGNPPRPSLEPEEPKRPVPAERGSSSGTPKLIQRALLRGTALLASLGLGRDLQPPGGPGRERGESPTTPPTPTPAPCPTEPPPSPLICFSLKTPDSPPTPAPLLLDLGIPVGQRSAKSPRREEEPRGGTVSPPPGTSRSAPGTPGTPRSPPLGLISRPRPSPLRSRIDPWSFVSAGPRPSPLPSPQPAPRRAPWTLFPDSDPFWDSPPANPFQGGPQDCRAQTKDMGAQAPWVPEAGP

[8] = molecular target: Casein kinase I isoform gamma-3 (Homo sapiens) (UniProt Q9Y6M4); experiment: Selectivity interaction (KinomeScan (DiscoverX)) EUB0000618a CSNK1G3; conditions: at 10 µM
Sequence of Casein kinase I isoform gamma-3 (Homo sapiens) (Q9Y6M4 whole entry, looked up, canonical isoform): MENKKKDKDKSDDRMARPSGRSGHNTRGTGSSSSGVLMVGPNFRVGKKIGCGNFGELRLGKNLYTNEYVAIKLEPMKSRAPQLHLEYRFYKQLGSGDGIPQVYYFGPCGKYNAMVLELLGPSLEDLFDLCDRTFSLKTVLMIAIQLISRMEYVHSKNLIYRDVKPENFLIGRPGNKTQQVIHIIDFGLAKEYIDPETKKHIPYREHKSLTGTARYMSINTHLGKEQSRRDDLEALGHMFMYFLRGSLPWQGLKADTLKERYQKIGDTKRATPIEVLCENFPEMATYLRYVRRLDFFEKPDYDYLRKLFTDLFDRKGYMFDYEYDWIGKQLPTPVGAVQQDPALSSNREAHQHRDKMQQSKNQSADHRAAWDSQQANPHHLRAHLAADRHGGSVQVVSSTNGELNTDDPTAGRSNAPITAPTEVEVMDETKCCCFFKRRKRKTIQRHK

[9] = molecular target: T4, Phosphatidylinositol 5-phosphate 4-kinase type-2 beta (Homo sapiens) (UniProt P78356); experiment: Selectivity interaction (ActivX KiNativ screen (ex vivo kinase selectivity in human PBMCs)) EUB0001619a PIP4K2B; assay type: cell-based; conditions: PBMC, at 1 µM
T4 sequence (whole entry): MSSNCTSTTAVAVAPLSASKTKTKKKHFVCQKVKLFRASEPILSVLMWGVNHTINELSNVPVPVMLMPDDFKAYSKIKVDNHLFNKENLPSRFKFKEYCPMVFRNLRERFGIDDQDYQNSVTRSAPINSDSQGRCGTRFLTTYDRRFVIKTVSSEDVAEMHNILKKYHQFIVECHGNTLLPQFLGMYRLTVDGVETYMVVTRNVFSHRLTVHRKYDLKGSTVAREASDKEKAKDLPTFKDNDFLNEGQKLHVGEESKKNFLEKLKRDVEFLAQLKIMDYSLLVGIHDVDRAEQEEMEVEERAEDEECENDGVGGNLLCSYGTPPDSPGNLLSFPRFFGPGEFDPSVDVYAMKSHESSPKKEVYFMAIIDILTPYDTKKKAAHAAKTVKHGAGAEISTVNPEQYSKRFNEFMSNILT

[10] = molecular target: Tyrosine-protein kinase SYK (Homo sapiens, UniProt P43405); experiment: Selectivity interaction (ActivX KiNativ screen (ex vivo kinase selectivity in human PBMCs)) EUB0001619a SYK; assay type: cell-based; conditions: PBMC, at 1 µM

Q: With `CNC(=O)Nc1ccc(-c2nc(N3CC4CCC(C3)O4)c3cnn(C4CCC5(CC4)OCCO5)c3n2)cc1` as the compound, how does the % of control [1] read?
A: 90%

Q: For `CCn1c(-c2nc3cc(C(=O)N4CCCC(N)C4)ccc3n2C)cc2ccccc21` (configuration not stated), which pXC50 [2] is on record?
A: < 4.4 M

Q: `CC[C@@H]1[C@H](F)C(=O)N[C@@H]1COc1nccc2cc(C(N)=O)c(OC)cc12` [ZIMLOVISERTIB] was tested. Which % of inhibition [3] did it give?
A: 8%

Q: How did the % of control ([4]; at 1 µM) turn out when `C=CC(=O)Nc1cccc(C(=O)Nc2ccc(Nc3cc(-c4[nH]c(SC)nc4C)ccn3)cc2)c1` was run?
A: 95%

Q: What about the % of control ([4]; at 5 µM) of the same compound?
A: 81%

Q: What about the % of control ([5]; at 1 µM) of the same compound?
A: 91%

Q: And the % of control ([5]; at 5 µM)?
A: 61%

Q: How did the % of inhibition [6] turn out when `Cc1cnc(Nc2ccc(F)cc2Cl)nc1-c1c[nH]c(C(=O)N[C@H](CO)c2cccc(Cl)c2)c1` was run?
A: 25%

Q: With `CN(C)CCOc1ccc(-c2nc(-c3ccncc3)c(-c3ccc4c(c3)CC/C4=N\O)[nH]2)cc1` as the compound, how does the % of control [7] read?
A: 100%

Q: How did the % of control [8] turn out when `O[C@H]1CC[C@H](Nc2ncc3nc(Nc4c(F)cc(F)cc4F)n([C@H]4CCOC4)c3n2)CC1` was run?
A: 100%

Q: `N#Cc1cccc(-c2c[nH]c3ncnc(N4CCOCC4)c23)c1` was tested. Which % of inhibition [9] did it give?
A: 15%

Q: What about the % of inhibition [10] of the same compound?
A: -12%
